From ChEMBL document CHEMBL1158859, “Antiprotozoal compounds from Asparagus africanus” (J Nat Prod, 1997)

What was measured:
Plasmodium falciparum [1] = experiment: Antiplasmodial activity against chloroquine-resistant Plasmodium falciparum V1/S after 48 hrs by [3H]hypoxanthine uptake; type: functional, organism-based
Leishmania major = experiment: Antileishmanial activity against Leishmania major promastigotes assessed as inhibition of [3H]thymidine uptake after 18 hrs by scintillation counting; type: functional, organism-based
[2] = Selectivity index, ratio of IC50 for human lymphocyte to IC50 for chloroquine-resistant Plasmodium falciparum V1/S
[3] = Inhibition of phytohemagglutininin A-induced human lymphocyte proliferation assessed as radiolabeled [14C]thymidine uptake; type: cell-based
Plasmodium falciparum [4] = experiment: Antiplasmodial activity against Plasmodium falciparum schizonts assessed as [3H]hypoxanthine incorporation by liquid scintillation counting; type: functional, organism-based; conditions: Dd2
[5] = Selectivity index, ratio of IC50 for human lymphocyte to IC50 for chloroquine-susceptible Plasmodium falciparum K39
[6] = Selectivity index, ratio of IC50 for human lymphocyte to IC50 for chloroquine-resistant Plasmodium falciparum Dd2
Plasmodium falciparum [7] = experiment: Antiplasmodial activity against chloroquine-susceptible Plasmodium falciparum 3D7 after 24 hrs by [3H]hypoxanthine uptake; type: functional, organism-based
[8] = Selectivity index, ratio of IC50 for human lymphocyte to IC50 for Leishmania major
[9] = Selectivity index, ratio of IC50 for human lymphocyte to IC50 for chloroquine-susceptible Plasmodium falciparum 3D7
Plasmodium falciparum [10] = experiment: Antiplasmodial activity against chloroquine-sensitive Plasmodium falciparum K39 after 48 hrs by [3H]hypoxanthine uptake; type: functional, organism-based
Plasmodium falciparum [11] = experiment: Antiplasmodial activity against chloroquine-resistant Plasmodium falciparum Dd2 after 24 hrs by [3H]hypoxanthine uptake; type: functional, organism-based

C[C@@H]1CC[C@@]2(OC1)O[C@H]1C[C@H]3C4=CCC5=CC(=O)[C@@H](O)C[C@]5(C)[C@H]4C[C@H](O)[C@]3(C)[C@H]1[C@@H]2C [MUZANZAGENIN]
Activity (Plasmodium falciparum [1]): Dose-dependent effect | IC50 (Plasmodium falciparum [1]): 163 µM | Activity (Leishmania major): Dose-dependent effect | IC50 (Leishmania major): 70 µM | Ratio IC50 [2]: 0.8 | IC50 [3]: 129 µM | Activity (Plasmodium falciparum [4]): Dose-dependent effect | IC50 (Plasmodium falciparum [4]): 16 µM | Ratio IC50 [5]: 2.1 | Ratio IC50 [6]: 8 | Activity (Plasmodium falciparum [7]): Dose-dependent effect | IC50 (Plasmodium falciparum [7]): 23 µM | Ratio IC50 [8]: 1.8 | Ratio IC50 [9]: 5.6 | Activity (Plasmodium falciparum [10]): Dose-dependent effect | IC50 (Plasmodium falciparum [10]): 61 µM

C=C[C@H](/C=C\c1ccc(O)cc1)c1ccc(O)cc1 [NYASOL]
IC50 (Leishmania major): 12 µM | IC50 [3]: 200 µM | IC50 (Plasmodium falciparum [4]): 12 µM | Ratio IC50 [6]: 16.7 | IC50 (Plasmodium falciparum [7]): 12 µM | Ratio IC50 [8]: 4.1 | Ratio IC50 [9]: 16.7 | IC50 (Plasmodium falciparum [11]): 49 µM
